For orientation: EC50 means the midpoint of the concentration-response curve. A higher EC50 goes with lower potency in that assay.

The structures appear in SMILES notation. Structures can show the parent of a compound that is named as a salt.

The target in this assay is T1, human TLR7 (Homo sapiens, UniProt Q9NYK1).
T1 construct: expressed in transfected cells; host or cells: HEK293 cell line stably expressing the pNiFty2-SEAP reporter plasmid; TLR7 in pUNO vector, blasticidin selection
T1 sequence (Q9NYK1 27-1049): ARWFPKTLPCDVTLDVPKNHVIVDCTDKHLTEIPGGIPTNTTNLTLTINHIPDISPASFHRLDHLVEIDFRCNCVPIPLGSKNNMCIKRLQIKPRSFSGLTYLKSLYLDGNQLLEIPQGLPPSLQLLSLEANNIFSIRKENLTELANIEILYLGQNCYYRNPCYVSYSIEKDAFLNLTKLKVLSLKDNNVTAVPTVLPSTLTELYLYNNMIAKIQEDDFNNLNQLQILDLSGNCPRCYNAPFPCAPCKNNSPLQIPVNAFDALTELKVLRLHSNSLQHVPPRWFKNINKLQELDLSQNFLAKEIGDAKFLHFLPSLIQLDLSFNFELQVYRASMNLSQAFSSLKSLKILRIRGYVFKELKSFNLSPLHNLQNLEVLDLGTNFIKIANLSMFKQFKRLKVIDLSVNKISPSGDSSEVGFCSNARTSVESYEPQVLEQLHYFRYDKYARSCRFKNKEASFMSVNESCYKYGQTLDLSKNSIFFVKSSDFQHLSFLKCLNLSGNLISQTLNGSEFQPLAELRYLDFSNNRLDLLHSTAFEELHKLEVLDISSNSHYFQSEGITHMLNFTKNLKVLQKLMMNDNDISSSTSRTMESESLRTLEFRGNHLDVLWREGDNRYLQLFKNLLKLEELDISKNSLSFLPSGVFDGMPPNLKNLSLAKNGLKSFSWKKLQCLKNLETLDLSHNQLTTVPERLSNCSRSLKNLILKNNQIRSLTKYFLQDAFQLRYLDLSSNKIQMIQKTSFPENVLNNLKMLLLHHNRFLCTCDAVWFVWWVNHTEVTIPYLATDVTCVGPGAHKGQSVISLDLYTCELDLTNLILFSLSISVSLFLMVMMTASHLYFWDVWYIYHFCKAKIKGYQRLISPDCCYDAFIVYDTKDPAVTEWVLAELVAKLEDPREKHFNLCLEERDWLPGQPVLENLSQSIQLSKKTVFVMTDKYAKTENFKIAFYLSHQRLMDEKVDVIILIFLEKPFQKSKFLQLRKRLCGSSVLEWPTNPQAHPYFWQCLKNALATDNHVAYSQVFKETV
The assay can be described thus: Human TLR7 assay (SEAP reporter in HEK293 cells). In kind it is cell-based. Conditions: SEAP induction in HEK293 cells expressing human TLR7, overnight incubation at 37° C., 0.1% DMSO.
Excerpt: The most common variant sequence of human TLR7 (represented by the EMBL sequence AF240467) was cloned into the mammalian cell expression vector pUNO and transfected into a HEK293 cell line already stably expressing the pNiFty2-SEAP reporter plasmid; integration of the reporter gene was maintained by selection with the antibiotic zeocin. Transfectants with stable TLR7 expression were selected using the antibiotic blasticidin. In this reporter cell-line, expression of secreted alkaline phosphatase (SEAP) is controlled by an NFkB/ELAM-1 composite promoter comprising five NFkB sites combined with the proximal ELAM-1 promoter. TLR signaling leads to the translocation of NFkB and activation of the promoter results in expression of the SEAP gene. TLR7-specific activation was assessed by determining the level of SEAP produced following overnight incubation of the cells at 37° C. with the standard compound in the presence of 0.1% (v/v) dimethylsulfoxide (DMSO). Concentration dependent induction of SEAP production by compounds was expressed as the concentration of compound which produced half of the maximal level of SEAP induction for that compound (pEC50).
In the case of `CCCCc1nc2c(N)nc3ccccc3c2n1CCCN(Cc1ccc(CC(=O)OC)cc1)C(=O)CN1CCC(N(C)C(=O)OC(C)(C)C)CC1` [Example 26, Methyl 2-(4-((N-(3-(4-amino-2-butyl-1H-imidazo[4,5-c]quinolin-1-yl)propyl)-2-(4-(tert-butoxycarbonyl(methyl)amino)piperidin-1-yl)acetamido)methyl)phenyl)acetate], the half-maximal effective concentration (EC50) was 0.316 µM.
With `CCOCc1nc2c(N)nc3ccccc3c2n1CCCN(Cc1cccc(CC(=O)OC)c1)C(=O)CN(C)C` [Example 7, Methyl 2-(3-((N-(3-(4-amino-2-(ethoxymethyl)-1H-imidazo[4,5-c]quinolin-1-yl)propyl)-2-(dimethylamino)acetamido)methyl)phenyl)acetate] the figure was 0.398 µM.
Turning to `CCCCc1nc2c(N)nc3ccccc3c2n1CCCN(Cc1cccc(CC(=O)OC)c1)C(=O)CN1CCC(OC)CC1` [Example 51, Methyl 2-(3-((N-(3-(4-amino-2-butyl-1H-imidazo[4,5-c]quinolin-1-yl)propyl)-2-(4-methoxypiperidin-1-yl)acetamido)methyl)phenyl)acetate], the midpoint of the response, the EC50, lay at 0.2 µM.
With `COCCc1nc2c(N)nc3ccccc3c2n1CCCN(Cc1cccc(CC(=O)OC)c1)C(=O)CN1CCN(CCOC)CC1` [Example 73, Methyl 2-(3-((N-(3-(4-amino-2-(2-methoxyethyl)-1H-imidazo[4,5-c]quinolin-1-yl)propyl)-2-(4-(2-methoxyethyl)piperazin-1-yl)acetamido)methyl)phenyl)acetate] the figure was 0.501 µM.
As to `CCCCc1nc2c(N)nc3ccccc3c2n1CCCN(Cc1cccc(CC(=O)OC)c1)C(=O)CN1CCC(O)C1` (centres unmarked) [Example 47, Methyl 2-(3-((N-(3-(4-amino-2-butyl-1H-imidazo[4,5-c]quinolin-1-yl)propyl)-2-(3-hydroxypyrrolidin-1-yl)acetamido)methyl)phenyl)acetate], it took 0.398 µM to reach a half-maximal effect (EC50). The EC50 values of the last two compounds are within 1.5-fold of each other.
Compound `CCCCc1nc2c(N)nc3ccccc3c2n1CCCN(Cc1cccc(CC(=O)OC)c1)C(=O)CN1CCCN(C(=O)NCC)CC1` [Example 64, Methyl 2-(3-((N-(3-(4-amino-2-butyl-1H-imidazo[4,5-c]quinolin-1-yl)propyl)-2-(4-(ethylcarbamoyl)-1,4-diazepan-1-yl)acetamido)methyl)phenyl)acetate] had an EC50 of 1.26 µM. Compared with the last compound, the EC50 is about 3.2-fold higher.
With `CCCCc1nc2c(N)nc3ccccc3c2n1CCCN(Cc1ccc(CC(=O)OC)cc1)C(=O)CN1CCCN(C(C)=O)CC1` [Example 67, Methyl 2-(4-((2-(4-acetyl-1,4-diazepan-1-yl)-N-(3-(4-amino-2-butyl-1H-imidazo[4,5-c]quinolin-1-yl)propyl)acetamido)methyl)phenyl)acetate] the figure was 0.501 µM.
With `CCCCc1nc2c(N)nc3ccccc3c2n1CCCN(Cc1ccc(CC(=O)OC)cc1)C(=O)CN(C)C1CCN(C(C)=O)CC1` [Example 69, Methyl 2-(4-((2-((1-acetylpiperidin-4-yl)(methyl)amino)-N-(3-(4-amino-2-butyl-1H-imidazo[4,5-c]quinolin-1-yl)propyl)acetamido)methyl)phenyl)acetate] the figure was 0.398 µM.
In turn, `CCCCc1nc2c(N)nc3ccccc3c2n1CCCNCc1cccc(CC(=O)OC)c1` [Example 2, Methyl 2-(3-((3-(4-amino-2-butyl-1H-imidazo[4,5-c]quinolin-1-yl)propylamino)methyl)phenyl)acetate] gave an EC50 of 0.398 µM.
On to `CCCCc1nc2c(N)nc3ccccc3c2n1CCCN(Cc1cccc(CC(=O)OC)c1)C1CCN(C)CC1` [Example 8, Methyl 2-(3-(((3-(4-amino-2-butyl-1H-imidazo[4,5-c]quinolin-1-yl)propyl)(1-methylpiperidin-4-yl)amino)methyl)phenyl)acetate], for which the EC50 was 0.316 µM. This EC50 and that of the compound before are within 1.5-fold of each other.
With `CCCCc1nc2c(N)nc3ccccc3c2n1CCCN(Cc1ccc(CC(=O)OC)cc1)C(=O)CN1CCC(CC(=O)OCC)CC1` [Example 27, Ethyl 2-(1-(2-((3-(4-amino-2-butyl-1H-imidazo[4,5-c]quinolin-1-yl)propyl)(4-(2-methoxy-2-oxoethyl)benzyl)amino)-2-oxoethyl)piperidin-4-yl)acetate] the figure was 0.0398 µM.
`CCCCc1nc2c(N)nc3ccccc3c2n1CCCN(Cc1cccc(CC(=O)OC)c1)C(=O)CN1CCC(O)CC1` [Example 50, Methyl 2-(3-((N-(3-(4-amino-2-butyl-1H-imidazo[4,5-c]quinolin-1-yl)propyl)-2-(4-hydroxypiperidin-1-yl)acetamido)methyl)phenyl)acetate] gave a concentration for a half-maximal effect (EC50) of 0.501 µM.
With `CCCCc1nc2c(N)nc3ccccc3c2n1CCCN(Cc1cccc(CC(=O)OC)c1)C(=O)CN1CCC1` [Example 44, Methyl 2-(3-((N-(3-(4-amino-2-butyl-1H-imidazo[4,5-c]quinolin-1-yl)propyl)-2-(azetidin-1-yl)acetamido)methyl)phenyl)acetate] the figure was 0.251 µM.
With `CCCCc1nc2c(N)nc3ccccc3c2n1CCCN(Cc1ccc(CC(=O)OC)cc1)C(=O)CN1CCC(NC(=O)OC(C)(C)C)CC1` [Example 25, Methyl 2-(4-((N-(3-(4-amino-2-butyl-1H-imidazo[4,5-c]quinolin-1-yl)propyl)-2-(4-(tert-butoxycarbonylamino)piperidin-1-yl)acetamido)methyl)phenyl)acetate] the figure was 0.2 µM.
With `COCCc1nc2c(N)nc3ccccc3c2n1CCCN(Cc1cccc(CC(=O)OC)c1)C(=O)CN1CCCCC1` [Example 31, Methyl 2-(3-((N-(3-(4-amino-2-(2-methoxyethyl)-1H-imidazo[4,5-c]quinolin-1-yl)propyl)-2-(piperidin-1-yl)acetamido)methyl)phenyl)acetate saccharin salt] the figure was 0.158 µM; with `CCCCc1nc2c(N)nc3ccccc3c2n1CCCN(Cc1ccc(CC(=O)OC)cc1)C(=O)CN1CCC(C(=O)OC)CC1` [Example 28, Methyl 1-(2-((3-(4-amino-2-butyl-1H-imidazo[4,5-c]quinolin-1-yl)propyl)(4-(2-methoxy-2-oxoethyl)benzyl)amino)-2-oxoethyl)piperidine-4-carboxylate], 0.2 µM; with `CCCCc1nc2c(N)nc3ccccc3c2n1CCCN(Cc1cccc(CC(=O)OC)c1)C(=O)CN(C)C1CCOCC1` [Example 43, Methyl 2-(3-((N-(3-(4-amino-2-butyl-1H-imidazo[4,5-c]quinolin-1-yl)propyl)-2-(methyl(tetrahydro-2H-pyran-4-yl)amino)acetamido)methyl)phenyl)acetate], 0.126 µM.
Consider `CCCCc1nc2c(N)nc3ccccc3c2n1CCCN(Cc1ccc(CC(=O)OC)cc1)C(=O)CN1CCN(c2ncccn2)CC1` [Example 21, Methyl 2-(4-((N-(3-(4-amino-2-butyl-1H-imidazo[4,5-c]quinolin-1-yl)propyl)-2-(4-(pyrimidin-2-yl)piperazin-1-yl)acetamido)methyl)phenyl)acetate], for which it took 0.631 µM to reach a half-maximal effect (EC50).
The compound `CCCCc1nc2c(N)nc3ccccc3c2n1CCCN(Cc1ccc(CC(=O)OC)cc1)C(=O)CN1CCCCC1` [Example 24, Methyl 2-(4-((N-(3-(4-amino-2-butyl-1H-imidazo[4,5-c]quinolin-1-yl)propyl)-2-(piperidin-1-yl)acetamido)methyl)phenyl)acetate] gave an EC50 of 0.0794 µM.
With `COCCc1nc2c(N)nc3ccccc3c2n1CCCN(CCCN1CCOCC1)Cc1ccc(CC(=O)OC)cc1` [Example 34, Methyl 2-(4-(((3-(4-amino-2-(2-methoxyethyl)-1H-imidazo[4,5-c]quinolin-1-yl)propyl)(3-morpholinopropyl)amino)methyl)phenyl)acetate] the figure was 0.316 µM.
With `COCCc1nc2c(N)nc3ccccc3c2n1CCCN(Cc1ccc(CC(=O)OC)cc1)C(=O)CN1CCN(C)CC1` [Example 70, Methyl 2-(4-((N-(3-(4-amino-2-(2-methoxyethyl)-1H-imidazo[4,5-c]quinolin-1-yl)propyl)-2-(4-methylpiperazin-1-yl)acetamido)methyl)phenyl)acetate] the figure was 0.398 µM.
For `CCCCc1nc2c(N)nc3ccccc3c2n1CCCN(Cc1cccc(CC(=O)OC)c1)C(=O)CN1CCN(C)CC1` [Example 55, Methyl 2-(3-((N-(3-(4-amino-2-butyl-1H-imidazo[4,5-c]quinolin-1-yl)propyl)-2-(4-methylpiperazin-1-yl)acetamido)methyl)phenyl)acetate], the EC50 is 0.0794 µM.
With `CCCCc1nc2c(N)nc3ccccc3c2n1CCCN(Cc1ccc(CC(=O)OC)cc1)C(=O)CN1CC[C@@H](O)C1` [Example 20, (R)-Methyl 2-(4-((N-(3-(4-amino-2-butyl-1H-imidazo[4,5-c]quinolin-1-yl)propyl)-2-(3-hydroxypyrrolidin-1-yl)acetamido)methyl)phenyl)acetate] the figure was 0.251 µM.

For the origin of these results see patent publication US8436178B2, “Imidazoquinolines with immuno-modulating properties” (AstraZeneca AB, priority 2007, dated 2013).
